Reference: PMC2866477, “Anticancer Effect and Structure-Activity Analysis of Marine Products Isolated from Metabolites of Mangrove Fungi in the South China Sea” (Marine Drugs, 2010)

What was measured:
Assay type in all cases: cell-based
KB cells = test: MTT cytotoxicity assay, KB cells; conditions: Homo sapiens, 72 h treatment, KB oral epidermoid carcinoma cells
Method: (§1) The cell lines were cultured in DMEM or RPMI 1640 containing 10% fetal bovine serum at 37 °C in the presence of 5% CO2. The cell lines were the oral epidermoid carcinoma cell lines KB and its vincristine-selected ABCB1-overexpressing KBv200 [10]; the breast carcinoma cell lines MCF-7 and its doxorubicin-selected ABCB1-overexpressing MCF-7/adr; the lung carcinoma cell line A549 and normal liver cell line LO2.
(§2) The MTT assay was used to evaluate the cytotoxicity of a number of compounds previously isolated from mangrove-derived fungi as described. Briefly, 3–4 × 10^3 cells were incubated in 96-well plates and allowed to attach overnight before compounds at full range concentrations were added. The concentrations were chosen so that the highest concentration killed most of the cells and the lowest killed none of the cells. After 72 h treatment, 0.5 mg/ml MTT was added to each well for an additional 4 h. Subsequently, the supernatant was removed, and the purple MTT-formazan crystals were dissolved by DMSO. Finally, absorbance was recorded at 540 nm with 655 nm as a reference filter using a Model 550 Microplate Reader (Bio-Rad, USA). Experiments were performed at least three times. The standard chemotherapeutic agent doxorubicin was used as a positive control in MTT assay and normal liver cell line LO2 was used to show whether cytotoxic activity was tumor-specific. The concentrations required to inhibit growth by 50% (IC50) were calculated from survival curves using the Bliss method.

KBv200 cells = test: MTT cytotoxicity assay, KBv200 cells; conditions: Homo sapiens, 72 h treatment, vincristine-selected ABCB1-overexpressing KBv200 cells
Method: as §1, §2

MCF-7 cells = test: MTT cytotoxicity assay, MCF-7 cells; conditions: Homo sapiens, MCF7, 72 h treatment, MCF-7 breast carcinoma cells
Method: as §1, §2

MCF-7/adr cells = test: MTT cytotoxicity assay, MCF-7/adr cells; conditions: Homo sapiens, NCI/ADR-RES, 72 h treatment, doxorubicin-selected ABCB1-overexpressing MCF-7/adr cells
Method: as §1, §2

A549 cells = test: MTT cytotoxicity assay, A549 cells; conditions: Homo sapiens, 72 h treatment, A549 lung carcinoma cells
Method: as §1, §2

normal liver LO2 cells = test: MTT cytotoxicity assay, normal liver LO2 cells; conditions: Homo sapiens, L02, 72 h treatment, normal liver LO2 cells
Method: as §1, §2

Measured: IC50

Cc1ccc([N+](=O)[O-])cc1CO [Compound 2]
> 50 µM: all assays above

Cc1c(CCl)cc([N+](=O)[O-])cc1CCl [Compound 3]
> 50 µM: all assays above

Cc1cccc(O)c1C(=O)O [Compound 5]
> 50 µM: all assays above

C/C=C/C(=O)c1cc(O)c(O)cc1O [Compound 6]
> 50 µM: all assays above

C=C/C=C/COc1c(-c2ccc3c(c2OC/C=C/C=C)C(=O)C2=C(O)CC(C)C(O)C2(C(=O)OC)O3)ccc2c1C(=O)C1=C(O)CC(C)C(O)C1(C(=O)OC)O2 (stereo not drawn) [Compound 10]
> 50 µM: all assays above

CCOC(=O)COc1cccc2c1C(=O)c1c(OCC(=O)OCC)cc(C)cc1C2=O [Compound 12]
> 50 µM: all assays above

Cc1cc(OCc2ccccc2)c2c(c1)C(=O)c1cccc(O)c1C2=O [Compound 15]
> 50 µM: all assays above

O=C1c2cccc(OCc3ccccc3)c2C(=O)c2c(OCc3ccccc3)cccc21 [Compound 16]
> 50 µM: all assays above

COc1cc(OC)c2c(c1)C(=O)c1cc3c(c(O)c1C2=O)C1CCOC1O3 (stereo not drawn) [Compound 17]
> 50 µM: all assays above

Cc1ccc2c(c1)C(=O)c1ccc(-c3ccc4c(c3)C(=O)c3cc(C)cc(O)c3C4=O)c(O)c1C2=O [Compound 19]
> 50 µM: all assays above

COc1cc(O)c2c(c1O)C(O)C1CC(C)(O)C(O)C(O)C1C2=O (stereo not drawn) [Compound 20]
> 50 µM: all assays above

COc1cc(O)c2c(c1O)C(O)C1CC(C)(O)C(O)CC1C2=O (stereo not drawn) [Compound 21]
> 50 µM: all assays above

COc1cc(O)c2c(c1O)C(O)C1CC3(C)OC3CC1C2=O (stereo not drawn) [Compound 22]
> 50 µM: all assays above

COc1cc(O)c2c(c1O)C(=O)C1CC(C)(O)C(O)CC1C2O (stereo not drawn) [Compound 23]
> 50 µM: all assays above

COc1cc(O)c2c(c1O)C(=O)C1CC(C)(O)C(O)C(O)C1C2O (stereo not drawn) [Compound 24]
> 50 µM: all assays above

COc1cc(O)c2c(c1O)C(=O)C1CC3(C)OC3CC1C2O (stereo not drawn) [Compound 25]
> 50 µM: all assays above

CCCCC/C=C\CC(O)/C=C/C=C\C/C=C\CCCC(=O)OC (stereo not drawn) [Compound 82]
> 50 µM: all assays above
